# Test system: human mesenchymal stem cells (MeSCs)
# Assay: Cardiac differentiation of human MeSCs in co-culture with cardiomyocytes (H9c2), RT-PCR with cardiac specific primers
# Type: cell-based
# Details: BrdU and/or 5-azaC 1-10 uM for 3 weeks, or nanog vector transfection; then co-culture with cardiomyocytes
# Source text: Cardiac differentiation of human mesenchymal stem cells (MeSCs) is achieved through treatment with nucleotide derivatives BrdU and 5-azaC and/or forced expression of embryonic stem cell gene nanog. Following treatment, cells were placed in a co-culture with cardiac cells (cardiomyocyte cell line H9c2). Human MeSCs plated in 6-well culture plates and expanded in serum-DMEM (Delbecco's Modified Eagle's Medium) containing 10% MeSC formulated fetal bovine serum (FBS, Stem Cell, Inc) containing antibiotics/antimycotics. MeSCs were treated with varying concentrations (1-10 uM) of BrdU and/or 5-azaC for 3 weeks or transfected with mammalian expression vector containing a nanog encoding sequence. Cell media was changed every three days prior to co-culture with cardiomyocytes. Cardiomyocytes were expanded and grown to near confluence in serum-DMEM with 10% non-conditioned FBS and antibiotics/antimycotics. To differentiate cardiac cells, serum media was replaced with plain DMEM containing only antibiotics and allowed to differentiate. Co-cultures were created by combining MeSCs with cardiac cells and culturing in cardiac media. Following co-culture, cells were treated with TRIzol and gene expression was assessed using RT-PCR and cardiac specific primers. […]
row,Structure (SMILES),"expression of cardiac specific genes (RT-PCR, gel electrophoresis)"
1,O=c1[nH]c(=O)n([C@H]2C[C@H](O)[C@@H](CO)O2)cc1Br [BrdU],expression of cardiac specific genes
2,Nc1ncn([C@@H]2O[C@H](CO)[C@@H](O)[C@H]2O)c(=O)n1 [5-azaC],expression of cardiac specific genes
